Laboratory results: the NIST ThermoML archive (doi:10.1016/j.jct.2015.05.006)

Key:
[1] = relative permittivity at various frequencies (dimensionless); xn = mol fraction of the nth substance listed; details: Liquid, Frequency=1 MHz, Parallel plate capacitor
[2] = xn = mol fraction of the nth substance listed; details: Liquid, Vibrating tube method

COCCOC [1,2-dimethoxyethane] + CCCCCC
95.2 kPa
Details	mass density, [2] [kg/m3]	relative permittivity, [1]
288.15 K, x2 = 0	872.06	7.41
288.15 K, x2 = 0.0501	857.87	–
288.15 K, x2 = 0.0513	–	6.89
288.15 K, x2 = 0.0904	–	6.46
288.15 K, x2 = 0.1049	842.87	–
288.15 K, x2 = 0.1999	–	5.58
288.15 K, x2 = 0.2992	–	4.85
288.15 K, x2 = 0.2999	794.19	–
288.15 K, x2 = 0.4004	–	4.19
288.15 K, x2 = 0.4059	770.33	–
288.15 K, x2 = 0.4961	751.31	–
288.15 K, x2 = 0.4983	–	3.65
288.15 K, x2 = 0.6001	–	3.17
288.15 K, x2 = 0.6054	729.6	–
288.15 K, x2 = 0.694	713.16	–
288.15 K, x2 = 0.7004	–	2.77
288.15 K, x2 = 0.7916	696.41	–
288.15 K, x2 = 0.8057	–	2.41
288.15 K, x2 = 0.9022	–	2.14
288.15 K, x2 = 0.9035	678.43	–
288.15 K, x2 = 0.9509	–	2.02
288.15 K, x2 = 0.9533	670.87	–
298.15 K, x2 = 0	861.17	7.07
298.15 K, x2 = 0.0459	–	6.61
298.15 K, x2 = 0.0495	846.99	–
298.15 K, x2 = 0.0955	–	6.19
298.15 K, x2 = 0.1011	833.13	–
298.15 K, x2 = 0.2009	807.1	–
298.15 K, x2 = 0.2013	–	5.36
298.15 K, x2 = 0.2992	–	4.67
298.15 K, x2 = 0.3031	782.87	–
298.15 K, x2 = 0.398	–	4.07
298.15 K, x2 = 0.4027	760.92	–
298.15 K, x2 = 0.4977	740.86	–
298.15 K, x2 = 0.4984	–	3.53
298.15 K, x2 = 0.5959	721.71	–
298.15 K, x2 = 0.6014	–	3.08
298.15 K, x2 = 0.6972	703.06	–
298.15 K, x2 = 0.7019	–	2.7
298.15 K, x2 = 0.8016	–	2.38
298.15 K, x2 = 0.8051	684.57	–
298.15 K, x2 = 0.8985	670	–
298.15 K, x2 = 0.9031	–	2.11
298.15 K, x2 = 0.9477	–	2.01
308.15 K, x2 = 0	850.13	6.75
308.15 K, x2 = 0.0457	837.34	–
308.15 K, x2 = 0.0494	–	6.3
308.15 K, x2 = 0.0927	824.63	–
308.15 K, x2 = 0.0967	–	5.9
308.15 K, x2 = 0.1938	–	5.18
308.15 K, x2 = 0.2001	797.09	–
308.15 K, x2 = 0.2984	773.76	–
308.15 K, x2 = 0.3011	–	4.47
308.15 K, x2 = 0.3939	752.46	–
308.15 K, x2 = 0.4025	–	3.91
308.15 K, x2 = 0.4989	–	3.44
308.15 K, x2 = 0.5082	728.75	–
308.15 K, x2 = 0.5955	711.88	–
308.15 K, x2 = 0.6018	–	3
308.15 K, x2 = 0.6927	694.24	–
308.15 K, x2 = 0.699	–	2.66
308.15 K, x2 = 0.7982	–	2.36
308.15 K, x2 = 0.8036	675.37	–
308.15 K, x2 = 0.901	–	2.09
308.15 K, x2 = 0.9023	660.16	–
308.15 K, x2 = 0.9506	–	1.99
308.15 K, x2 = 0.9509	653.01	–

COCCOC [1,2-dimethoxyethane] + CCCCCCCC
97.1 kPa
Details	mass density, [2] [kg/m3]	relative permittivity, [1]
288.15 K, x2 = 0	872.06	7.41
288.15 K, x2 = 0.0493	857.73	–
288.15 K, x2 = 0.0502	–	6.79
288.15 K, x2 = 0.1011	843.79	–
288.15 K, x2 = 0.1035	–	6.21
288.15 K, x2 = 0.2005	–	5.31
288.15 K, x2 = 0.2032	819.39	–
288.15 K, x2 = 0.3015	–	4.54
288.15 K, x2 = 0.3036	798.48	–
288.15 K, x2 = 0.4019	780.49	–
288.15 K, x2 = 0.4024	–	3.92
288.15 K, x2 = 0.4964	–	3.45
288.15 K, x2 = 0.4992	764.69	–
288.15 K, x2 = 0.6022	–	3.01
288.15 K, x2 = 0.6046	749.52	–
288.15 K, x2 = 0.7031	–	2.67
288.15 K, x2 = 0.707	736.47	–
288.15 K, x2 = 0.8035	–	2.38
288.15 K, x2 = 0.8044	725.4	–
288.15 K, x2 = 0.9038	–	2.15
288.15 K, x2 = 0.9082	714.88	–
288.15 K, x2 = 0.9495	711.04	–
288.15 K, x2 = 0.9511	–	2.06
298.15 K, x2 = 0	861.17	7.07
298.15 K, x2 = 0.0487	–	6.5
298.15 K, x2 = 0.0493	847.03	–
298.15 K, x2 = 0.1004	–	5.97
298.15 K, x2 = 0.1011	833.26	–
298.15 K, x2 = 0.2032	809.21	–
298.15 K, x2 = 0.204	–	5.07
298.15 K, x2 = 0.3008	–	4.39
298.15 K, x2 = 0.3036	788.62	–
298.15 K, x2 = 0.4019	770.94	–
298.15 K, x2 = 0.4064	–	3.78
298.15 K, x2 = 0.4992	755.41	–
298.15 K, x2 = 0.5043	–	3.32
298.15 K, x2 = 0.6046	740.56	2.93
298.15 K, x2 = 0.7038	–	2.62
298.15 K, x2 = 0.707	727.79	–
298.15 K, x2 = 0.8039	–	2.35
298.15 K, x2 = 0.8044	716.95	–
298.15 K, x2 = 0.9008	–	2.14
298.15 K, x2 = 0.9082	706.67	–
298.15 K, x2 = 0.9495	702.91	–
298.15 K, x2 = 0.9516	–	2.04
308.15 K, x2 = 0	850.13	6.75
308.15 K, x2 = 0.0493	836.17	–
308.15 K, x2 = 0.0513	–	6.2
308.15 K, x2 = 0.1011	822.58	–
308.15 K, x2 = 0.1017	–	5.71
308.15 K, x2 = 0.203	–	4.88
308.15 K, x2 = 0.2032	798.9	–
308.15 K, x2 = 0.3025	–	4.23
308.15 K, x2 = 0.3036	778.63	–
308.15 K, x2 = 0.4019	761.25	–
308.15 K, x2 = 0.4021	–	3.69
308.15 K, x2 = 0.4992	746.01	–
308.15 K, x2 = 0.5006	–	3.25
308.15 K, x2 = 0.6029	–	2.87
308.15 K, x2 = 0.6046	731.48	–
308.15 K, x2 = 0.7028	–	2.57
308.15 K, x2 = 0.707	718.98	–
308.15 K, x2 = 0.802	–	2.32
308.15 K, x2 = 0.8044	708.4	–
308.15 K, x2 = 0.9027	–	2.11
308.15 K, x2 = 0.9082	698.35	–
308.15 K, x2 = 0.9493	–	2.03
308.15 K, x2 = 0.9495	694.71	–
